Laboratory results published in patent US20060263802A1 (priority 2003, published 2006).

Assays:
Type in all cases: binding
[1] = test system: human monoclonal antibody CRJB
[2] = test system: human monoclonal antibody CR57
[3] = test system: human monoclonal antibody CRJA
[4] = test system: human monoclonal antibody CRJB; remark: listed apart in the source
[5] = test system: human monoclonal antibody CR57; remark: listed apart in the source
[6] = test system: human monoclonal antibody CRJA; remark: listed apart in the source

| Sequence | Binding of CRJB to linear peptide (PEPSCAN-ELISA signal) [1] | Binding of CR57 to linear peptide (PEPSCAN-ELISA signal) [2] | Binding of CRJA to linear peptide (PEPSCAN-ELISA signal) [3] | Binding of CRJB (10 μg/ml) to looped/cyclic peptide (PEPSCAN-ELISA) [4] | Binding of CR57 (10 μg/ml) to looped/cyclic peptide (PEPSCAN-ELISA) [5] | Binding of CRJA (10 μg/ml) to looped/cyclic peptide (PEPSCAN-ELISA) [6] | Binding of CRJB (10 μg/ml) to looped/cyclic peptide (PEPSCAN-ELISA signal) [4] | Binding of CR57 (10 μg/ml) to looped/cyclic peptide (PEPSCAN-ELISA signal) [5] | Binding of CRJA (10 μg/ml) to looped/cyclic peptide (PEPSCAN-ELISA signal) [6] | also measured |
| --- | --- | --- | --- | --- | --- | --- | --- | --- | --- | --- |
| KGACKLKLCGVLGLR | 111 | 181 | 50 | 60 | 78 | 50 | – | – | – | binding of antibody CR57 to linear peptide (PEPSCAN OD) [2]: bound |
| LRVGGRCHPHVNGVF | 143 | 104 | 104 | 105 | 99 | 96 | – | – | – | – |
| PDGNVLIPEMQSSLL | 129 | 87 | 99 | 108 | 110 | 112 | – | – | – | – |
| PRLGMSCDIFTNSRG | 112 | 72 | 108 | – | – | – | 89 | 87 | 96 | – |
| EHLVVEELVRKREEC | 114 | 82 | 76 | 83 | 89 | 93 | – | – | – | – |
| LGMSCDIFTNSRGKR | 110 | 76 | 100 | – | – | – | 105 | 102 | 104 | – |
| ESSVIPLVHPLADPS | 138 | 104 | 121 | 92 | 108 | 91 | – | – | – | – |
| GDPRYEESLHNPYPD | 98 | 36 | 96 | – | – | – | 82 | 64 | 90 | – |
| LQQHMELLESSVIPL | 134 | 106 | 91 | 93 | 136 | 108 | – | – | – | – |
| YDRSLHSRVFPSGKC | 818 | 364 | 1027 | – | – | – | 72 | 112 | 86 | binding of antibody CRJB to linear peptide (PEPSCAN OD) [1]: clearly bound; binding of antibody CR57 to linear peptide (PEPSCAN OD) [2]: bound; binding of antibody CRJA to linear peptide (PEPSCAN OD) [3]: clearly bound |
| TWNEILPSKGCLRVG | 146 | 97 | 93 | 113 | 132 | 127 | – | – | – | – |
| SYMELKVGYILAIKM | 123 | 65 | 143 | – | – | – | 92 | 106 | 96 | – |
| VFKDGDEAEDFVEVH | – | – | – | – | – | – | – | – | – | Binding of human monoclonal antibody CRJB to linear peptide (PEPSCAN-ELISA signal) [1]: 106; Binding of human monoclonal antibody CR57 to linear peptide (PEPSCAN-ELISA signal) [2]: 100; Binding of human monoclonal antibody CRJA to linear peptide (PEPSCAN-ELISA signal) [3]: 125; Binding of CRJB to looped/cyclic peptide (PEPSCAN-ELISA signal) [4]: 125; Binding of CR57 to looped/cyclic peptide (PEPSCAN-ELISA signal) [5]: 168; Binding of CRJA to looped/cyclic peptide (PEPSCAN-ELISA signal) [6]: 104 |
| SGFSYMELKVGYILA | 132 | 79 | 105 | – | – | – | 83 | 74 | 69 | – |
| EAENYTNFVGYVTTT | 117 | 69 | 62 | – | – | – | 60 | 55 | 54 | – |
| PGFGKAYTIFNKTLM | 113 | 78 | 118 | 79 | 110 | 94 | – | – | – | – |
| EESLHNPYPDYRWLR | 123 | 76 | 85 | – | – | – | 85 | 121 | 100 | – |
| ERGLYKSLKGACKLK | 118 | 90 | 101 | 72 | 100 | 104 | – | – | – | – |
| MTTKSVSFRRLSHLR | 116 | 59 | 74 | 8 | 68 | 79 | – | – | – | – |
| SLVIISPSVADLDPY | 105 | 68 | 88 | – | – | – | 85 | 98 | 87 | – |
| RKHFRPTPDACRAAY | 107 | 64 | 57 | – | – | – | 79 | 72 | 41 | – |
| GFTCTGVVTEAENYT | 86 | 71 | 90 | – | – | – | 68 | 94 | 87 | – |
| TFKRKHFRPTPDACR | 111 | 96 | 97 | – | – | – | 99 | 112 | 105 | – |
| IYTILDKLGPWSPID | 97 | 44 | 83 | – | – | – | 58 | 66 | 78 | – |
| HDFRSDEIEHLVVEE | 107 | 69 | 78 | 79 | 24 | 111 | – | – | – | – |
| ILDKLGPWSPIDIHH | 104 | 54 | 56 | – | – | – | 46 | 80 | 71 | – |
| LHDFRSDEIEHLVVE | 115 | 93 | 110 | 65 | 40 | 90 | – | – | – | – |
| YEESLHNPYPDYRWL | 106 | 58 | 87 | – | – | – | 50 | 98 | 84 | – |
| ENYTNFVGYVTTTFK | 112 | 44 | 80 | – | – | – | 80 | 60 | 58 | – |
